# Results as given in patent US20250186541A1, “DLL3 TARGETING PEPTIDES AND CONSTRUCTS THEREOF” (MARIANA ONCOLOGY INC., priority 2023, published 2025).
# Bridge positions count the residues as written; N and C are the ends. Square brackets hold non-standard residues; d marks the D form. Peptide text beside a SMILES is read from it. * marks the point of attachment. DOTA = O=C(O)CN1CCN(CC(=O)O)CCN(CC(=O)*)CCN(CC(=O)O)CC1; Phe(4-CF3) = N[C@@H](Cc1ccc(C(F)(F)F)cc1)C(=O)O; Phe(4-COOH) = N[C@@H](Cc1ccc(C(=O)O)cc1)C(=O)O; Phe(3-F) = N[C@@H](Cc1cccc(F)c1)C(=O)O; Phe(4-F) = N[C@@H](Cc1ccc(F)cc1)C(=O)O; Carboxymethyl = O=C(O)C*; Nva = CCC[C@H](N)C(=O)O; Ahx = NCCCCCC(=O)O
# Molecular target: T1, human DLL3 (Homo sapiens, UniProt Q9NYJ7)
# T1 construct: biotin (biotinylated)
# T1 sequence (Q9NYJ7 27-618): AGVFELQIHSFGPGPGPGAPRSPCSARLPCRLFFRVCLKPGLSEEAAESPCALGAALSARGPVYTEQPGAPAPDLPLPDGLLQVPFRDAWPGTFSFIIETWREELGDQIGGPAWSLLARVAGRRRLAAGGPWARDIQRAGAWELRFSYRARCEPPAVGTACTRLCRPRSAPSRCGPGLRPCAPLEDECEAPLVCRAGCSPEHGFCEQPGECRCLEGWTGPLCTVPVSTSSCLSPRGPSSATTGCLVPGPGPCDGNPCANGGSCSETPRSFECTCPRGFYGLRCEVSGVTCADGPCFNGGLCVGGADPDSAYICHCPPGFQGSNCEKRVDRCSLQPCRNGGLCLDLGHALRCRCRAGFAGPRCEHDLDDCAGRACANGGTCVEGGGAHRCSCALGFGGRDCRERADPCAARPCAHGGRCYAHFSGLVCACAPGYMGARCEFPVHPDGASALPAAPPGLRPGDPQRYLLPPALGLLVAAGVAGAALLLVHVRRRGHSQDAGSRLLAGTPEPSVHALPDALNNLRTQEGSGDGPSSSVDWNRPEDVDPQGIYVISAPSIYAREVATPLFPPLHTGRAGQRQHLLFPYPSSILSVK
# Test: Affinity determination by Surface Plasmon Resonance (SPR), Biacore, 1:1 binding model
# Conditions: biotinylated human DLL3 on streptavidin chip, 25° C.; NB = nonbinding
# In short: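 SPR with biotinylated human DLL3 captured on a streptavidin chip, with a reference surface subtracted. Samples were injected at several concentrations at 100 μL/min in phosphate buffer with 137 mM NaCl, 2.7 mM KCl, 0.05% P20 and 2% DMSO. Kinetic and affinity constants came from a 1:1 binding fit.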
row,Compound,Kd [nM]
1,"CSCC[C@H](NC(C)=O)C(=O)N[C@@H](CO)C(=O)N[C@@H](CC(=O)O)C(=O)N[C@H]1CSSC[C@@H](C(=O)N2CCC[C@H]2C(=O)N[C@@H](Cc2ccccc2)C(=O)N[C@@H](CC(=O)O)C(N)=O)NC(=O)[C@H](CC(N)=O)NC(=O)[C@H](Cc2c[nH]c3ccccc23)NC(=O)[C@H](CCC(N)=O)NC(=O)[C@H](C)NC(=O)[C@H](Cc2c[nH]c3ccccc23)NC1=O [compound 23, Ac-M-S-D-C(3)-W-(L-Ala)-Q-W-N-C(3)-P-F-D-CONH2] (Ac-MSDCWAQWNCPFD-NH2; disulfide 4-10)",> 100
2,"CSCC[C@H](NC(C)=O)C(=O)N[C@@H](CO)C(=O)N[C@@H](CC(=O)O)C(=O)N[C@H]1CSSC[C@@H](C(=O)N2CCC[C@H]2C(=O)N[C@@H](Cc2ccccc2)C(=O)N[C@@H](CC(=O)O)C(N)=O)NC(=O)[C@H](C)NC(=O)[C@H](Cc2c[nH]c3ccccc23)NC(=O)[C@H](CCC(N)=O)NC(=O)[C@H](CC(C)C)NC(=O)[C@H](Cc2c[nH]c3ccccc23)NC1=O [compound 26, Ac-M-S-D-C(3)-W-L-Q-W-(L-Ala)-C(3)-P-F-D-CONH2] (Ac-MSDCWLQWACPFD-NH2; disulfide 4-10)",> 100
3,"CSCC[C@H](NC(C)=O)C(=O)N[C@@H](CO)C(=O)N[C@@H](CC(=O)O)C(=O)N[C@H]1CSSC[C@@H](C(=O)N[C@@H](C)C(=O)N[C@@H](Cc2ccccc2)C(=O)N[C@@H](CC(=O)O)C(N)=O)NC(=O)[C@H](CC(N)=O)NC(=O)[C@H](Cc2c[nH]c3ccccc23)NC(=O)[C@H](CCC(N)=O)NC(=O)[C@H](CC(C)C)NC(=O)[C@H](Cc2c[nH]c3ccccc23)NC1=O [compound 27, Ac-M-S-D-C(3)-W-L-Q-W-N-C(3)-(L-Ala)-F-D-CONH2] (Ac-MSDCWLQWNCAFD-NH2; disulfide 4-10)",> 100
4,"CSCC[C@H](NC(C)=O)C(=O)N[C@@H](CO)C(=O)N[C@@H](CC(=O)O)C(=O)N[C@H]1CSSC[C@@H](C(=O)N2CCC[C@H]2C(=O)N[C@@H](C)C(=O)N[C@@H](CC(=O)O)C(N)=O)NC(=O)[C@H](CC(N)=O)NC(=O)[C@H](Cc2c[nH]c3ccccc23)NC(=O)[C@H](CCC(N)=O)NC(=O)[C@H](CC(C)C)NC(=O)[C@H](Cc2c[nH]c3ccccc23)NC1=O [compound 28, Ac-M-S-D-C(3)-W-L-Q-W-N-C(3)-P-(L-Ala)-D-CONH2] (Ac-MSDCWLQWNCPAD-NH2; disulfide 4-10)",> 100
5,"CSCC[C@H](NC(C)=O)C(=O)N[C@@H](CO)C(=O)N[C@@H](CC(=O)O)C(=O)N[C@H]1CSSC[C@@H](C(=O)N2CCC[C@H]2C(=O)N[C@@H](Cc2ccccc2)C(=O)N[C@@H](C)C(N)=O)NC(=O)[C@H](CC(N)=O)NC(=O)[C@H](Cc2c[nH]c3ccccc23)NC(=O)[C@H](CCC(N)=O)NC(=O)[C@H](CC(C)C)NC(=O)[C@H](Cc2c[nH]c3ccccc23)NC1=O [compound 29, Ac-M-S-D-C(3)-W-L-Q-W-N-C(3)-P-F-(L-Ala)-CONH2] (Ac-MSDCWLQWNCPFA-NH2; disulfide 4-10)",> 100
6,"CCC[C@H](NC(C)=O)C(=O)N[C@@H](CO)C(=O)N[C@@H](CC(=O)O)C(=O)N[C@H]1CSSC[C@@H](C(=O)N2CCC[C@H]2C(=O)N[C@@H](Cc2ccccc2)C(=O)N[C@@H](CC(=O)O)C(=O)N[C@H](CCCCNC(=O)CN2CCN(CC(=O)O)CCN(CC(=O)O)CCN(CC(=O)O)CC2)C(N)=O)NC(=O)[C@H](CC(N)=O)NC(=O)[C@H](Cc2c[nH]c3ccccc23)NC(=O)[C@H](CCC(N)=O)NC(=O)[C@H](CC(C)C)NC(=O)[C@H](Cc2c[nH]c3ccccc23)NC1=O [compound 32, Ac-Nva-S-D-C(3)-W-L-Q-W-N-C(3)-P-F-D-D-Lys(DOTA)-CONH2] (Ac-[Nva]SDCWLQWNCPFD[dK](DOTA)-NH2; disulfide 4-10)",28
7,"CC(C)C[C@@H]1NC(=O)[C@H](Cc2c[nH]c3ccccc23)NC(=O)[C@@H](NC(=O)[C@H](CC(=O)O)NC(=O)[C@H](CO)NC(=O)CCCCCNC(=O)CN2CCN(CC(=O)O)CCN(CC(=O)O)CCN(CC(=O)O)CC2)CSSC[C@@H](C(=O)N2CCC[C@H]2C(=O)N[C@@H](Cc2ccc(F)cc2)C(=O)N[C@@H](CC(=O)O)C(N)=O)NC(=O)[C@H](CC(N)=O)NC(=O)[C@H](Cc2c[nH]c3ccccc23)NC(=O)[C@H](CCC(N)=O)NC1=O [compound 33, DOTA-Ahx-S-D-C(3)-W-L-Q-W-N-C(3)-P-(4Fluoro-F)-D-CONH2] ({DOTA-Ahx}-SDCWLQWNCP[Phe(4-F)]D-NH2; disulfide 3-9)",> 300
8,"CC(C)C[C@@H]1NC(=O)[C@H](Cc2c[nH]c3ccccc23)NC(=O)[C@@H](NC(=O)[C@H](CC(=O)O)NC(=O)[C@H](CO)NC(=O)CCCCCNC(=O)CN2CCN(CC(=O)O)CCN(CC(=O)O)CCN(CC(=O)O)CC2)CSSC[C@@H](C(=O)N2CCC[C@H]2C(=O)N[C@@H](Cc2ccc(C(F)(F)F)cc2)C(=O)N[C@@H](CC(=O)O)C(N)=O)NC(=O)[C@H](CC(N)=O)NC(=O)[C@H](Cc2c[nH]c3ccccc23)NC(=O)[C@H](CCC(N)=O)NC1=O [compound 34, DOTA-Ahx-S-D-C(3)-W-L-Q-W-N-C(3)-P-(4CF3-F)-D-CONH2] ({DOTA-Ahx}-SDCWLQWNCP[Phe(4-CF3)]D-NH2; disulfide 3-9)",> 300
9,"CC(C)C[C@@H]1NC(=O)[C@H](Cc2c[nH]c3ccccc23)NC(=O)[C@@H](NC(=O)[C@H](CC(=O)O)NC(=O)[C@H](CO)NC(=O)CCCCCNC(=O)CN2CCN(CC(=O)O)CCN(CC(=O)O)CCN(CC(=O)O)CC2)CSSC[C@@H](C(=O)N2CCC[C@H]2C(=O)N[C@@H](Cc2ccc(C(=O)O)cc2)C(=O)N[C@@H](CC(=O)O)C(N)=O)NC(=O)[C@H](CC(N)=O)NC(=O)[C@H](Cc2c[nH]c3ccccc23)NC(=O)[C@H](CCC(N)=O)NC1=O [compound 35, DOTA-Ahx-S-D-C(3)-W-L-Q-W-N-C(3)-P-(4COOH-F)-D-CONH2] ({DOTA-Ahx}-SDCWLQWNCP[Phe(4-COOH)]D-NH2; disulfide 3-9)",> 100
10,"CC(C)C[C@@H]1NC(=O)[C@H](Cc2c[nH]c3ccccc23)NC(=O)[C@@H](NC(=O)[C@H](CC(=O)O)NC(=O)[C@H](CO)NC(=O)CCCCCNC(=O)CN2CCN(CC(=O)O)CCN(CC(=O)O)CCN(CC(=O)O)CC2)CSSC[C@@H](C(=O)N2CCC[C@H]2C(=O)N[C@@H](Cc2cccc(F)c2)C(=O)N[C@@H](CC(=O)O)C(N)=O)NC(=O)[C@H](CC(N)=O)NC(=O)[C@H](Cc2c[nH]c3ccccc23)NC(=O)[C@H](CCC(N)=O)NC1=O [compound 36, DOTA-Ahx-S-D-C(3)-W-L-Q-W-N-C(3)-P-(3Fluoro-F)-D-CONH2] ({DOTA-Ahx}-SDCWLQWNCP[Phe(3-F)]D-NH2; disulfide 3-9)",16
11,"CC(C)C[C@@H]1NC(=O)[C@H](Cc2c[nH]c3ccccc23)NC(=O)[C@@H](NC(=O)[C@H](CC(=O)O)NC(=O)[C@H](CO)NC(=O)CCCCCNC(=O)CN2CCN(CC(=O)O)CCN(CC(=O)O)CCN(CC(=O)O)CC2)CSSC[C@@H](C(=O)N2CCC[C@H]2C(=O)N[C@@H](Cc2ccc(OCC(=O)O)cc2)C(=O)N[C@@H](CC(=O)O)C(N)=O)NC(=O)[C@H](CC(N)=O)NC(=O)[C@H](Cc2c[nH]c3ccccc23)NC(=O)[C@H](CCC(N)=O)NC1=O [compound 37, DOTA-Ahx-S-D-C(3)-W-L-Q-W-N-C(3)-P-(4-CMF)-D-CONH2] ({DOTA-Ahx}-SDCWLQWNCPY(Carboxymethyl)D-NH2; disulfide 3-9)",> 100
